Measurements taken from ChEMBL document CHEMBL1201862, “PubChem BioAssay data set” (2004).
Values belong to the compound of their own block, whether it stands above or below them. Active and inactive are the calls of the source.

Experiments:
CAAX prenyl protease 2 [1] = molecular target: T1, CAAX prenyl protease 2 (Saccharomyces cerevisiae S288c, UniProt Q03530); format: biochemical
T1 sequence (Q03530 whole entry): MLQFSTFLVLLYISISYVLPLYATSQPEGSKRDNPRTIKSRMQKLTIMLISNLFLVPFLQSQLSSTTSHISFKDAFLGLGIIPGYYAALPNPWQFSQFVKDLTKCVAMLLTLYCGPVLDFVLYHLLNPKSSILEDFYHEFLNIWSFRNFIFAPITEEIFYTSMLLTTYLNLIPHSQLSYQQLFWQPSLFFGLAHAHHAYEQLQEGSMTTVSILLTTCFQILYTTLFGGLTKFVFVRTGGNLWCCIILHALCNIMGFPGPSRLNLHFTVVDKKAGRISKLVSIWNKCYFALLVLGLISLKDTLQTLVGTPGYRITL

CAAX prenyl protease 2 [2] = molecular target: T2, CAAX prenyl protease 2 (Homo sapiens, UniProt Q9Y256); assay: inhibition of Ras-converting CAAX endoprotease – biochemical, plate reader, dry powder samples, dose response (AID 588848)
T2 sequence (Q9Y256 whole entry): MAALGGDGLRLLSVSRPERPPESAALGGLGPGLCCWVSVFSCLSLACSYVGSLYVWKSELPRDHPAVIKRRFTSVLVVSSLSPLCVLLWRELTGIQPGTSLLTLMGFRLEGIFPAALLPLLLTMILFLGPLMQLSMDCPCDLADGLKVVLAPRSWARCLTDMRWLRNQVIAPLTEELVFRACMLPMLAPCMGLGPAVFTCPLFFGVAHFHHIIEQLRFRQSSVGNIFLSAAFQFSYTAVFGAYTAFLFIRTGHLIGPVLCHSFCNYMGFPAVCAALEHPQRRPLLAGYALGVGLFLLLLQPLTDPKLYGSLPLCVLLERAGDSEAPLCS

CAAX prenyl protease 2 [3] = molecular target: T1, CAAX prenyl protease 2; assay: inhibition of Rce1p peptide cleavage – biochemical, plate reader, dry powder retest, dose response (AID 588851)
CAAX prenyl protease 2 [4] = molecular target: T2, CAAX prenyl protease 2; assay: inhibition of Ras-converting CAAX protease Rce1 – biochemical, yeast membranes, quenched-peptide fluorescence, cherry-pick, dose response (AID 588849)
Phospholipase D1 = Phospholipase D1 (Homo sapiens, UniProt Q13393); assay: cellular phospholipase D1 inhibition IC50 – cell-based, dose response (AID 602151); format: functional;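 note: cellular PLD1 assay in Calu-1 cells stimulated with PMA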
Phospholipase D2 = Phospholipase D2 (Homo sapiens, UniProt O14939); assay: cellular phospholipase D2 inhibition IC50 – cell-based, dose response (AID 602147); format: functional;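 note: cellular assay in HEK293 cells overexpressing GFP-tagged PLD2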
Sequence of Phospholipase D2 (O14939 whole entry): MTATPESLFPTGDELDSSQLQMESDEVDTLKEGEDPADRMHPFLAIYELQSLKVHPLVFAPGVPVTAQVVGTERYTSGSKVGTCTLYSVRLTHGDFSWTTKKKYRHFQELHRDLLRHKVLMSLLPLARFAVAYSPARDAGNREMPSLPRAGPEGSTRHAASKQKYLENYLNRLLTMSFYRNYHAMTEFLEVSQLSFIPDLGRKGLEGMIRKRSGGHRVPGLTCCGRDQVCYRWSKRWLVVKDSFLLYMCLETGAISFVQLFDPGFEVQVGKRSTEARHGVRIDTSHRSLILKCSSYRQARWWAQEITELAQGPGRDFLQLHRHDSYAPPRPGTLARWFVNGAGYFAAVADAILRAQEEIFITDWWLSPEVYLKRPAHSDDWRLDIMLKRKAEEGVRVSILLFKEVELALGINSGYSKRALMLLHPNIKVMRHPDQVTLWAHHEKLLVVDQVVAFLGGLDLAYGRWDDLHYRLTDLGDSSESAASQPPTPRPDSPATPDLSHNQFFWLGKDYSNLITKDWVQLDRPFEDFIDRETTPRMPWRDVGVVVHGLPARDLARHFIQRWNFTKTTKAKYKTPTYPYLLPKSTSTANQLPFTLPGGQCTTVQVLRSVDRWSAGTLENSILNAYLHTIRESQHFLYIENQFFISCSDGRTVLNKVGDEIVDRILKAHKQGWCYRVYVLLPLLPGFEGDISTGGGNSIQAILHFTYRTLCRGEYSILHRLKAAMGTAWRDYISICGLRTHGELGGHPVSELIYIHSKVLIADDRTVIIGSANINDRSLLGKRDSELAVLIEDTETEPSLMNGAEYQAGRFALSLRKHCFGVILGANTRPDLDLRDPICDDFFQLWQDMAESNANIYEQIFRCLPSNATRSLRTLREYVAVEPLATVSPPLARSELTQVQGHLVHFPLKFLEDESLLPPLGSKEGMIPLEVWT

Cytochrome P450 2C19 = Cytochrome P450 2C19 (Homo sapiens, UniProt P33261); assay: Cytochrome panel assay with activity outcomes. Panel member name: p450-cyp2c19 Compounds with AC50 equal or less than 10 uM are considered active; format: functional
Sequence of Cytochrome P450 2C19 (P33261 whole entry): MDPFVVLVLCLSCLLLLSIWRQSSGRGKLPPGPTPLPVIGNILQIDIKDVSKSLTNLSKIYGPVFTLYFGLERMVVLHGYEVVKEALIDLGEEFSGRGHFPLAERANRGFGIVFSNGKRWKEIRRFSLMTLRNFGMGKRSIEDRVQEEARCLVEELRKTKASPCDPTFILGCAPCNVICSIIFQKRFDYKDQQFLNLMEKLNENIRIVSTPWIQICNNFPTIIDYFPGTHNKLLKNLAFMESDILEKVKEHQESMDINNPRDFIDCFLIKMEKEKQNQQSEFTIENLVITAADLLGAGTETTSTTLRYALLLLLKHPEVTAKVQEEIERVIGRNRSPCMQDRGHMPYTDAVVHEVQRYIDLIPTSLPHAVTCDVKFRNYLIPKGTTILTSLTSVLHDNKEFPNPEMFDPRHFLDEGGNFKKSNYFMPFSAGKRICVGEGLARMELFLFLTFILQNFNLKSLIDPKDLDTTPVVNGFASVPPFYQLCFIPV

[5] = molecular target: Voltage-gated inwardly rectifying potassium channel KCNH2 (Homo sapiens, UniProt Q12809); details: Potency;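 note: confirmatory quantitative high-throughput screen measuring inhibition of hERG channel activity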
[6] = molecular target: Beta-adrenergic receptor kinase 1 (Homo sapiens, UniProt P25098); assay: aptamer displacement from bead-bound GRK2 – biochemical, cherry pick 1, bead flow cytometry, dose response (AID 504500)
Sequence of Beta-adrenergic receptor kinase 1 (P25098 whole entry, the tested form may be a part): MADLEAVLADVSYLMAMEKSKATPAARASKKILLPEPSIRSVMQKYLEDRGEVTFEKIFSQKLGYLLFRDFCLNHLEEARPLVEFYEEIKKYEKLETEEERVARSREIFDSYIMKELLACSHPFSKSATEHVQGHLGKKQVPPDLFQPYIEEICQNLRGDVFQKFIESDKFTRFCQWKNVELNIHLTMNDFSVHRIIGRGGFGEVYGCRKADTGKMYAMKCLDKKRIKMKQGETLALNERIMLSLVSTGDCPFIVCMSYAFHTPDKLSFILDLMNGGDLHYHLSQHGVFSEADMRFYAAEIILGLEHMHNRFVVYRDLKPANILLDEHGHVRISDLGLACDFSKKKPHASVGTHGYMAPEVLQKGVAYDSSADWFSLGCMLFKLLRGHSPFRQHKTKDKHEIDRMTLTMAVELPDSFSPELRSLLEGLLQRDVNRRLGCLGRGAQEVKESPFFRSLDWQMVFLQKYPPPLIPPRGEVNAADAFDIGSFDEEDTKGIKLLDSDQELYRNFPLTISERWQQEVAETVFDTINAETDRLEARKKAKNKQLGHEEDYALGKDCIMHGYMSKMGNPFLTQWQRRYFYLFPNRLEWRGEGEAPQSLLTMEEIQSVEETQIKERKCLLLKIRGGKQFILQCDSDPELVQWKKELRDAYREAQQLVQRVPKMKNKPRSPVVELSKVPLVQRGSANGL

[7] = molecular target: T3, Carboxy-terminal domain RNA polymerase II polypeptide A small phosphatase 1 (Homo sapiens, UniProt Q9GZU7); assay: CTDSP1 inhibitors, concentration-response, biochemical, absorbance readout, ultra-high-throughput screen actives (AID 540297); format: functional
T3 sequence (Q9GZU7 whole entry): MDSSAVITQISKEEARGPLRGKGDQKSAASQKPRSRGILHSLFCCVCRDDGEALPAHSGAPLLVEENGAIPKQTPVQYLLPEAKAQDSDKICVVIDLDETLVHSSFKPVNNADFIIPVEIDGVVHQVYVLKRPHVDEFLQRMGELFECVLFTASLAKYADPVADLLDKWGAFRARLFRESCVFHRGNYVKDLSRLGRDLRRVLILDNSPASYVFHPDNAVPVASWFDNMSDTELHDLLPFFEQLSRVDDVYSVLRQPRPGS

[8] = molecular target: DNA (cytosine-5)-methyltransferase 1 (Homo sapiens, UniProt P26358); assay: inhibition of DNA methylation by DNMT1 – biochemical, fluorescent molecular beacon, confirmation (AID 602386); format: functional
Sequence of DNA (cytosine-5)-methyltransferase 1 (P26358 whole entry): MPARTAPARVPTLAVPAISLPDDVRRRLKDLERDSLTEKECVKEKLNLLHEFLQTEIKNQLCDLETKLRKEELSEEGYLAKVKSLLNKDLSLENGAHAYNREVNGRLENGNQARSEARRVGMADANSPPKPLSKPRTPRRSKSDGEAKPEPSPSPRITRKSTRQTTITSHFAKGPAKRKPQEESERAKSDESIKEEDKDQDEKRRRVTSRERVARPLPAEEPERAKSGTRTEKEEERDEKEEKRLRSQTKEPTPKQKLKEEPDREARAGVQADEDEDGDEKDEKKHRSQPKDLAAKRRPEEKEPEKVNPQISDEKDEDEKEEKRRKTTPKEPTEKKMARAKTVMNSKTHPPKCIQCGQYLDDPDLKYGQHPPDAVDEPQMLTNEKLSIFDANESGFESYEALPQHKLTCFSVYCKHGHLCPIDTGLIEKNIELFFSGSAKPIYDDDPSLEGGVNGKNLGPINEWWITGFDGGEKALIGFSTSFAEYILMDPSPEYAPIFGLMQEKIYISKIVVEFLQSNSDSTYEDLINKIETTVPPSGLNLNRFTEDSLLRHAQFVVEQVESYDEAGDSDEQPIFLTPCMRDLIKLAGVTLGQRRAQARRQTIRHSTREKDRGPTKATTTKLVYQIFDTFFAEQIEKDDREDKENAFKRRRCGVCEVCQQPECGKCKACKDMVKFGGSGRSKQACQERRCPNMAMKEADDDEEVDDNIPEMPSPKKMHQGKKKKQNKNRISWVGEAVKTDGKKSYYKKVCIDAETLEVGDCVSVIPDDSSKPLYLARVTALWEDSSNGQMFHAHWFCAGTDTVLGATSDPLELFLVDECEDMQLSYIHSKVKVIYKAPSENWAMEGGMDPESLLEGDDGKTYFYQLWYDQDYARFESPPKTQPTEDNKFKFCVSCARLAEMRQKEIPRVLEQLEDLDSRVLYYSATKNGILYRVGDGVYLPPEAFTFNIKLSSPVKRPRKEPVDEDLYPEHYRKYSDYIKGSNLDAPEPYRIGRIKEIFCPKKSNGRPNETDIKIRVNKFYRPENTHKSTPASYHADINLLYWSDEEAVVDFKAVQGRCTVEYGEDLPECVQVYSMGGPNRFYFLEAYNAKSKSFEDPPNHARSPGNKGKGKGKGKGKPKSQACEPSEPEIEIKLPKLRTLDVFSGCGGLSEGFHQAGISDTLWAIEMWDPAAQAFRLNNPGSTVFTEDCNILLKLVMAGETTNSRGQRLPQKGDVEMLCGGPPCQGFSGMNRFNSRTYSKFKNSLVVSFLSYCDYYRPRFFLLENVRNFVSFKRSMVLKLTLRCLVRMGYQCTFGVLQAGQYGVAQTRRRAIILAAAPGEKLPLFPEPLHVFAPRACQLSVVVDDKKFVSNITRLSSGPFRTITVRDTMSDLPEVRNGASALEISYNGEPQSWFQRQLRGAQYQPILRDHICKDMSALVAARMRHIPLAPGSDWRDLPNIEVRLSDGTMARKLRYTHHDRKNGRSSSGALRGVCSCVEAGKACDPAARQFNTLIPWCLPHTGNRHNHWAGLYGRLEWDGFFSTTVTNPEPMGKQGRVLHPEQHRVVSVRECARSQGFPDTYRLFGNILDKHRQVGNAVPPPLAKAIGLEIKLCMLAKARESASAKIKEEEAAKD

[9] = molecular target: T4, Small ubiquitin-related modifier 1 (Homo sapiens, UniProt P63165); assay: SUMO1 protein interaction blockers, potency – biochemical, fluorescence polarization, uHTS hits, dose response (AID 624382); format: functional; details: read-out: IC50_Mean
T4 sequence (P63165 whole entry): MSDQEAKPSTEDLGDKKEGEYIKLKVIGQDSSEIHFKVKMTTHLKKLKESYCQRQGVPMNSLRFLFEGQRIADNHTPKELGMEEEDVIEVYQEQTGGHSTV

[10] = molecular target: T4, Small ubiquitin-related modifier 1; assay: SUMO1 protein-protein binding blockers, potency – biochemical, FRET, dose response (AID 624383); format: functional; details: read-out: IC50_Mean
[11] = molecular target: Latent membrane protein 1 (Human herpesvirus 4 (strain B95-8), UniProt P03230); assay: LMP1 TES1 pathway selectivity over dsRED control – imaging, HEK293T, dual-color eGFP/dsRED, cherry-picks, selectivity assay for LMP1 NF-kB inhibitor project, dose response (AID 588398); format: functional, cell-based
Sequence of Latent membrane protein 1 (P03230 whole entry): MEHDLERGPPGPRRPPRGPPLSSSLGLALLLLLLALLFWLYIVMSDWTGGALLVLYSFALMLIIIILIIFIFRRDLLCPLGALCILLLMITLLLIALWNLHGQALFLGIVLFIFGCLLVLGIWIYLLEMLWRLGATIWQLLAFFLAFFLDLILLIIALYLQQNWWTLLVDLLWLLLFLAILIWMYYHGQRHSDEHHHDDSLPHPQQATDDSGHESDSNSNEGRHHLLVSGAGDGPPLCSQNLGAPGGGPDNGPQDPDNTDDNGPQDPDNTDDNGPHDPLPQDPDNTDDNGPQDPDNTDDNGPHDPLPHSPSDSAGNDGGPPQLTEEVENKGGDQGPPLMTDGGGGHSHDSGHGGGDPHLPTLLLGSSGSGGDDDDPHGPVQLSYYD

[12] = molecular target: T5, Short transient receptor potential channel 4 (Mus musculus, UniProt Q9QUQ5); assay: SAR Analysis for the identification of selective inhibits of the transient receptor potential cation channel C4 (TRPC4): Automated Electrophysiology. [Related pubchem assays (depositor defined):AID2256]; format: functional
T5 sequence (Q9QUQ5 whole entry): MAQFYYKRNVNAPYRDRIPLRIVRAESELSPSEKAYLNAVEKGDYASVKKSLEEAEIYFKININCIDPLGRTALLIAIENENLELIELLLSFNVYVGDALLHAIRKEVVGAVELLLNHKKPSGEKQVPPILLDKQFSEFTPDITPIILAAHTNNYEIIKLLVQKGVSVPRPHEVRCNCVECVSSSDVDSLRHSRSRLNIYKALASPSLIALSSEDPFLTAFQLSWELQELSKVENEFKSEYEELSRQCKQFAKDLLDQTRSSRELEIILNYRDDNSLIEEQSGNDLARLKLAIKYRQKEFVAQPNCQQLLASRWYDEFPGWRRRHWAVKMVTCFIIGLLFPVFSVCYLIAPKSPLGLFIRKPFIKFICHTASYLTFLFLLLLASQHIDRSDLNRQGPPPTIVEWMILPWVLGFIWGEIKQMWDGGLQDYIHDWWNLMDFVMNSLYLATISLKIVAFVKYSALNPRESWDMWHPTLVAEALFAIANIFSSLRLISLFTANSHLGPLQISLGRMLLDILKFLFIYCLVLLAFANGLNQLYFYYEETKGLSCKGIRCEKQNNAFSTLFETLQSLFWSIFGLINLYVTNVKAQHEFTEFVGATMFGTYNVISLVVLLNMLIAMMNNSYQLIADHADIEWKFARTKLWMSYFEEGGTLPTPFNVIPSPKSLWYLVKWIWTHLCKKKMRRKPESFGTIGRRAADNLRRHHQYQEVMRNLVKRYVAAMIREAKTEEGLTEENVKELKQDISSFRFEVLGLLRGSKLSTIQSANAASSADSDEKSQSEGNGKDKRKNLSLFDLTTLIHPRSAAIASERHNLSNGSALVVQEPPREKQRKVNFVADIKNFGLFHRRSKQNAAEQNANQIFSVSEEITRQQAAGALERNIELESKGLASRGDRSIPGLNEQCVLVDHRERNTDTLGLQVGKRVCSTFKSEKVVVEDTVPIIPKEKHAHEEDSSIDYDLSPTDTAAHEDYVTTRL

[13] = molecular target: T5, Short transient receptor potential channel 4; assay: mouse TRPC4 block via Gq-coupled stimulation – cell-based, acetylcholine stimulus, HEK293 TRPC4, Fluo-4, SAR follow-up (AID 492996); format: functional
[14] = molecular target: Short transient receptor potential channel 6 (Mus musculus, UniProt Q61143); assay: mouse TRPC6 channel blockers, concentration series – HEK293 cells, membrane potential dye, IC50, selectivity assay for selective TRPC4 inhibitor project, dose response (AID 492987); format: functional, cell-based
[15] = molecular target: T5, Short transient receptor potential channel 4; assay: potency of mouse TRPC4 calcium flux blockers – cell-based, HEK293 TRPC4/mu-opioid, DAMGO stimulus, Fluo-4, dose response (AID 492994); format: functional
[16] = molecular target: Beta-2 adrenergic receptor (Homo sapiens, UniProt P07550); assay: ADRB2 activation measured by internalization – cell-based, FAP fluorogen, flow cytometry, cherry pick 1, dose response (AID 588763); format: functional
Sequence of Beta-2 adrenergic receptor (P07550 whole entry): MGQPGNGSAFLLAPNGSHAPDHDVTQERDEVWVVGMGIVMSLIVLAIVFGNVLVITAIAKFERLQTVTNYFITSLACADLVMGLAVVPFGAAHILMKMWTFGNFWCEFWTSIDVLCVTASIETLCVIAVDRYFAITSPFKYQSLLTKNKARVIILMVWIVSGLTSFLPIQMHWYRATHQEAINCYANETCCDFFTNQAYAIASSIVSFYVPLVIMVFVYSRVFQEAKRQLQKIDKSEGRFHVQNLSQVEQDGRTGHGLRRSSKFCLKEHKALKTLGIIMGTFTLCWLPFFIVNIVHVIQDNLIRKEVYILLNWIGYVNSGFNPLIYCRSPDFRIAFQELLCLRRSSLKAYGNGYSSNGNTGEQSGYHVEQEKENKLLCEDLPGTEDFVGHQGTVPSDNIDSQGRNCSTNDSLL

[17] = molecular target: Luciferin 4-monooxygenase (Photinus pyralis, UniProt P08659); assay: inhibition of purified Photinus pyralis luciferase – biochemical, luminescence, dose response (AID 1891)
[18] = Luminescence Cell-Based Dose Confirmation HTS to Identify Inhibitors of Platelet Dense Granule Release. [Related pubchem assays: 1663 (Primary HTS), 1678 (Summary of Project)]; format: functional
[19] = PAR1 agonist-induced platelet activation inhibition – cell-based, fluorescence, flow cytometry, human platelets, dose response (AID 2511); format: functional
[20] = Fluorescence Cell-Based Dose Response to Identify Inhibitors of Thrombin Receptor-Activating Peptide SFLLRN-Mediated P-Selectin Induction on Platelets. [Related pubchem assays: 1663 (Primary HTS), 1889 (retest at dose ), 1891 (counterscreen), 1678 (Project Summary)]; format: functional
[21] = blockers of SFLLRN-triggered platelet ATP secretion – cell-based, human platelets, luminescence, dry powder, dose response (AID 493100); format: functional
[22] = Luminescence Cell-Based Dose Response Follow up to Identify Inhibitors of Platelet Dense Granule Release. [Related pubchem assays (depositor defined):AID1663, AID1678, AID2398]; format: functional
BJ [23] = assay: BJ-TERT fibroblast viability loss – cell-based, RAS-independent, luminescence, dose response (AID 1933); format: functional; details: Homo sapiens
BJ [24] = assay: cells; format: functional, cell-based; details: Homo sapiens
BJ [25] = assay: BJ-TERT-LT-ST fibroblast viability loss – cell-based, RAS-independent, luminescence, dose response (AID 1935); format: functional; details: Homo sapiens;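 note: BJ fibroblasts immortalized with TERT plus LT and ST oncogenes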
[26] = DRD fibroblast viability loss – cell-based, non-viral oncogenic, luminescence, dose response (AID 1934); format: functional; details: Homo sapiens
[27] = molecular target: T6, Microphthalmia-associated transcription factor (Homo sapiens, UniProt O75030); assay: reducers of TRPM1 reporter luminescence, concentration series – cell-based, SK-MEL-5, cherry-picked, set 3, MITF inhibitor project, dose response (AID 493073); format: functional;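 note: SK-MEL-5 melanoma cells with luciferase driven by the MITF target TRPM1 promoter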
T6 sequence (O75030 whole entry): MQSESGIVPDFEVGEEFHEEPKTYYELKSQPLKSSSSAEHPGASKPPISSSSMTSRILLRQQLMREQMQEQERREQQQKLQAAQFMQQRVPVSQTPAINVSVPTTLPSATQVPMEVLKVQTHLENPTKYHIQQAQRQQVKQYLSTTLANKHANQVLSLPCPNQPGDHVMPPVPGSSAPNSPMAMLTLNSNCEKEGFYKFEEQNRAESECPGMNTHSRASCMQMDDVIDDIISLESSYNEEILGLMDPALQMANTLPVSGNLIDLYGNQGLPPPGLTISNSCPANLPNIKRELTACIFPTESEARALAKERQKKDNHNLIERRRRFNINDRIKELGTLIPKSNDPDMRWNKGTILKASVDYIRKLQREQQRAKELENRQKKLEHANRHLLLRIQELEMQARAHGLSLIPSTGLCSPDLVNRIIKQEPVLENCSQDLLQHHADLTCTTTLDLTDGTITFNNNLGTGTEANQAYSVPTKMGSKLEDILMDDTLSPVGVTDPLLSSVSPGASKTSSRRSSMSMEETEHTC

BJ [28] = assay: growth inhibition of engineered Ras-driven BJ cells – cell-based, alamar blue fluorescence, cherrypicked samples, dose response (AID 2631); format: functional; details: Homo sapiens;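 note: confirmatory dose-response assay in RAS-dependent BJ fibroblasts engineered with TERT, LT and ST, with cytotoxicity read by fluorescence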
A-375 = assay: proliferation inhibition in MITF-low A375 cells – cell-based, cherry-pick samples, set 2, counter-screen for MITF modulator project, dose response (AID 540335); format: functional; details: Homo sapiens
Bcl-2-like protein 10 = molecular target: T7, Bcl-2-like protein 10 (Homo sapiens, UniProt Q9HD36); assay: Isothermal titration calorimetry (ITC) with Bcl-B and compounds active in primary screen. [Related pubchem assays (depositor defined):AID1693]; format: functional
T7 sequence (Q9HD36 whole entry): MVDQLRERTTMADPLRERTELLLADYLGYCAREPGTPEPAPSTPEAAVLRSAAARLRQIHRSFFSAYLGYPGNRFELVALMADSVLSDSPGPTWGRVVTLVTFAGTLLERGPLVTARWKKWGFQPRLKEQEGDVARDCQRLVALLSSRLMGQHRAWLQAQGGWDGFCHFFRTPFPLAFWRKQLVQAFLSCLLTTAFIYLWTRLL

Escherichia coli = assay: microbe, parasite or virus in culture

SMILES: O=C(c1cnc2ccccc2c1)N1CCCC1CN1CCC(n2c(=O)[nH]c3ccccc32)CC1 (centres undefined)
IC50 (Phospholipase D1): 2.8 µM (active) | IC50 (Phospholipase D2): 3.75 µM (active)

SMILES: CCOC(=O)C(C)N1C(=O)S/C(=C\c2ccc(-c3ccccc3C(=O)O)o2)C1=O (centres undefined)
EC50 [6]: 3.05 µM (active) | IC50 [7]: 1.88 µM (active) | IC50 [8]: 6.76 µM (active) | IC50 [9]: > 66.6 µM (inactive) | IC50 [10]: 10.3 µM (active)

SMILES: CC(=NNC(=S)N1CCCCC1)c1ccccn1
AC50 [11]: 4.29 µM (active)

SMILES: Cc1ccc(-n2c(N)c(C#N)c(-c3ccccc3)c(C#N)c2=O)cc1
EC50 [17]: > 112 µM (not active) | EC50 [18]: 3.22 µM (active) | EC50 [19]: < 3 µM (active) | EC50 [20]: < 0.3 µM (active) | AC50 [21]: 7.52 µM (active) | EC50 [22]: 0.36 µM (active)

SMILES: N#CCc1ccc(NC(=O)/C=C/c2ccc([N+](=O)[O-])o2)cc1
EC50 (BJ [23]): 4.8 µM (active) | EC50 (BJ [24]): 3.87 µM (inconclusive) | EC50 (BJ [25]): 5.37 µM (inconclusive) | EC50 [26]: 3.12 µM (active) | AC50 [27]: 4.97 µM (active) | EC50 (BJ [28]): 1.41 µM (active) | AC50 (A-375): 91.2 µM (active)

SMILES: CC1CCN(CC(=O)c2ccccc2Cl)CC1
AC50 (Escherichia coli): 34.2 µM (active)

More lines, main results first:

AC50 (CAAX prenyl protease 2 [1]): 0.55 µM (active) | AC50 (CAAX prenyl protease 2 [2]): 60.6 µM (active) | AC50 (CAAX prenyl protease 2 [3]): 4.85 µM (active) | AC50 (CAAX prenyl protease 2 [4]): 17.3 µM (active)
SMILES: CN(C(=O)COC(=O)c1cc([N+](=O)[O-])ccc1Sc1ccccc1)C1CCS(=O)(=O)C1 (centres undefined)

AC50 (Cytochrome P450 2C19): inconclusive
SMILES: Oc1cc(-c2ccccc2)nc2nc(Cl)ccc12
AC50 [5]: 35.5 µM (inconclusive)

IC50 [12]: 3.59 µM (active) | IC50 [13]: 39.1 µM (active) | IC50 [14]: 11.9 µM (active) | IC50 [15]: 1.84 µM (active)
SMILES: Cc1cc(N2CCCC2)nc2ccccc12

EC50 [16]: 0.571 µM (active)
SMILES: CCOC(=O)c1ccc(N2C(=O)c3[nH]nc(-c4ccco4)c3C2c2cccc([N+](=O)[O-])c2)cc1 (centres undefined)

IC50 (Bcl-2-like protein 10): 3.16 µM (active)
SMILES: Cc1ccc(C=NNC(=O)CSc2nnc(-c3ccc(Cl)cc3)n2-c2ccccc2)o1
